Reference: article PMC3854447, “Functional characterisation of three members of the Vitis vinifera L. carotenoid cleavage dioxygenase gene family” (BMC Plant Biology, 2013)

Molecular target: T1, VvCCD1 (Vitis vinifera, UniProt U3M7F6)
T1 construct: gene CCD1; 1715 bp coding region from Pinotage cDNA, NdeI/PstI in pTWIN1, expressed in carotenoid-accumulating E. coli
Test: co-expression in carotenoid-accumulating E. coli, HS-SPME GC/MS of volatile apocarotenoid
Type: cell-based
Conditions: beta-carotene strain (pAC-BETA); product beta-ionone; Fe2+ and ascorbate added; room temperature, 16 h, dark

T1 sequence (U3M7F6 1-542): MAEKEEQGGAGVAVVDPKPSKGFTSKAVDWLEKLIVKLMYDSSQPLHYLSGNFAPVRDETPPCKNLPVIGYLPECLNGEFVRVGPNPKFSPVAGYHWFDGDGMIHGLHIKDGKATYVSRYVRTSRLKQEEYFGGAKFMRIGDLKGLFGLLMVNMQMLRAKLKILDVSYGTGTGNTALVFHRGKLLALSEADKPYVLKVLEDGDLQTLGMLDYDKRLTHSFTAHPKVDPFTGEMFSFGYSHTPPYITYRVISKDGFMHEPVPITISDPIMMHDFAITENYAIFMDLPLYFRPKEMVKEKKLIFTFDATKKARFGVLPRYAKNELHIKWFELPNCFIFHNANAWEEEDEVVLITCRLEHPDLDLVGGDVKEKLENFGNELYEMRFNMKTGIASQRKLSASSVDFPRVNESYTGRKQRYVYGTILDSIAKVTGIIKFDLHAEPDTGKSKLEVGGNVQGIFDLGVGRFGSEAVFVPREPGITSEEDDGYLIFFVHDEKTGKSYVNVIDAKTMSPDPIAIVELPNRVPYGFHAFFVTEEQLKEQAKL

CC1=C(/C=C/C(C)=C/C=C/C(C)=C/C=C/C=C(C)/C=C/C=C(C)/C=C/C2=C(C)CCCC2(C)C)C(C)(C)CCC1 [β-carotene]
co-expression in carotenoid-accumulating E. coli, HS-SPME GC/MS of volatile apoc: Only VvCCD1, however, catalysed β-carotene cleavage to form β-ionone
